Measured values from US11319306B2, “Compositions and methods for treating neurodegenerative diseases” (Azevan Pharmaceuticals, Inc., priority 2014, dated 2022).

Molecular target: T1, human V1a receptor (Homo sapiens, UniProt P37288)
T1 construct: host or cells: CHO cells (hV1a cell line)
Assay: Human vasopressin V1a receptor binding assay (3H-AVP competition, hV1a CHO cells)
Conditions: 3H-AVP competition, CHO cells expressing human V1a; for IC50: read-out: V1a Binding Affinity IC50; for Ki: read-out: V1a Ki
Description: Human vasopression V1a receptor binding assay. A cell line expressing the human V1a receptor in CHO cells (henceforth referred to as the hV1a cell line) was obtained from Dr. Michael Brownstein, NIMH, Bethesda, Md., USA. The hV1a cDNA sequence is described by Thibonnier et al., Journal of Biological Chemistry, 269, 3304-3310 (1994), and the expression method was the same as described by Morel et al. (1992). The hV1a cell line was grown in alpha-MEM with 10% fetal bovine serum and 250 ug/ml G418 (Gibco, Grand Island, N.Y., USA). For competitive binding assay, hV1a cells were plated into 6-well culture plate at 1:10 dilution from a confluency flask, and maintained in culture for at least two days. Culture medium was then removed, cells were washed with 2 ml binding buffer (25 mM Hepes, 0.25% BSA, 1×DMEM, PH=7.0). To each well, 990 μl binding buffer containing InM 3H-AVP was added, and followed by 10 μl series diluted Example compounds dissolved in DMSO. […] 100 nM cold AVP (Sigma) was used to assess non-specific binding. Cells were incubated for 45 minutes at 37° C., assay mixture was removed and each well was washed three times with PBS (pH=7.4). 1 ml 2% SDS was added per well and plates were let sit for 30 minutes. The whole content in a well was transferred to a scintillation vial. Each well was rinsed with 0.5 ml PBS which was then added to the corresponding vial. Scintillation fluid (Ecoscint, National Diagnostics, Atlanta, Ga.) was then added at 3 ml per vial. Samples were counted in a liquid scintillation counter (Beckman LS3801). IC50 values were calculated by Prism Curve fitting software.
All of the alkanedioic esters and amides exemplified in the foregoing examples dissolved in DMSO were tested in this assay. Binding curves were generated according to methods described by Thibonnier et al. (1994). [^3H]-AVP was added to the hV1a cell cultures followed by 10-fold dilutions of each test compound.

T1 sequence (P37288 whole entry): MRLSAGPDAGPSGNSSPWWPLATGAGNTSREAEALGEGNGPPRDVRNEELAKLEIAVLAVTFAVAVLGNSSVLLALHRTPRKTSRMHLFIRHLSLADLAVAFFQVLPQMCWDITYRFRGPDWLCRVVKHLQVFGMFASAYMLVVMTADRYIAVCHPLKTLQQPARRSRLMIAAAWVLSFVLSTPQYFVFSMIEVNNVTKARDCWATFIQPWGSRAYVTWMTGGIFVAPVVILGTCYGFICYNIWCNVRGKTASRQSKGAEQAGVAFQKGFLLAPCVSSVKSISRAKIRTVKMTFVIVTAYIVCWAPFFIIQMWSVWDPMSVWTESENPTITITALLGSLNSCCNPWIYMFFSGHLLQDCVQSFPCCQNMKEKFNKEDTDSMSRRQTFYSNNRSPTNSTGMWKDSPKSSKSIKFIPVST

Row | IC50 | Ki | Compound
1 | 15 nM |  | O=C(CC[C@@H](C(=O)NCc1cccc(C(F)(F)F)c1)N1C(=O)[C@@H](N2C(=O)OC[C@@H]2c2ccccc2)[C@H]1/C=C/c1ccccc1)NCCN1CCCCC1 [Example 87]
2 | 3.24 nM | 1.99 nM | O=C(NCc1cccc(C(F)(F)F)c1)[C@H](CCC(=O)N1CCN(N2CCCC2)CC1)N1C(=O)[C@@H](N2C(=O)OC[C@@H]2c2ccccc2)[C@H]1/C=C/c1ccccc1 [Example 91]
3 | 1.76 nM | 1.08 nM | O=C(NCc1cccc(C(F)(F)F)c1)C(CCC(=O)N1CCN(Cc2ccccc2)CC1)N1C(=O)C(N2C(=O)OCC2c2ccccc2)C1C=Cc1ccccc1 (stereo not shown) [Example 95]
4 | 4.35 nM | 2.66 nM | O=C(NCc1cccc(C(F)(F)F)c1)C(CCC(=O)N1CCN(Cc2ccc3c(c2)OCO3)CC1)N1C(=O)C(N2C(=O)OCC2c2ccccc2)C1C=Cc1ccccc1 (stereo not shown) [Example 96]
5 | 1.31 nM | 0.82 nM | O=C(NCc1cccc(C(F)(F)F)c1)C(CCC(=O)N1CCN(CCC2CCCCC2)CC1)N1C(=O)C(N2C(=O)OCC2c2ccccc2)C1C=Cc1ccccc1 (stereo not shown) [Example 111]
6 | 1.34 nM | 0.8 nM | O=C(NCc1cccc(C(F)(F)F)c1)C(CCC(=O)N1CCN(CCN2CCOCC2)CC1)N1C(=O)C(N2C(=O)OCC2c2ccccc2)C1C=Cc1ccccc1 (stereo not shown) [Example 112]
7 | 16.2 nM | 9.9 nM | O=C(NCc1cccc(C(F)(F)F)c1)C(CCC(=O)N1CCC(CCN2CCCCC2)CC1)N1C(=O)C(N2C(=O)OCC2c2ccccc2)C1C=Cc1ccccc1 (stereo not shown) [Example 120A]
8 | 2.93 nM | 1.79 nM | CCCN1CCN(C(=O)CCC(C(=O)NCc2cccc(C(F)(F)F)c2)N2C(=O)C(N3C(=O)OCC3c3ccccc3)C2C=Cc2ccccc2)CC1 (stereo not shown) [Example 120B]
9 | 0.75 nM | 0.46 nM | O=C(NCc1cccc(C(F)(F)F)c1)C(CCC(=O)N1CCN(CC2CCCCC2)CC1)N1C(=O)C(N2C(=O)OCC2c2ccccc2)C1C=Cc1ccccc1 (stereo not shown) [Example 120]
10 | 6.3 nM | 3.9 nM | O=C(NC1(c2ccccc2)CCCC1)C(CC(=O)N1CCC(N2CCCCC2)CC1)N1C(=O)C(N2C(=O)OCC2c2ccccc2)C1C=Cc1ccccc1 (stereo not shown) [Example 132D]
11 | 12.9 nM | 7.9 nM | O=C(NCc1cccc(C(F)(F)F)c1)C(CC(=O)N1CCC(CCN2CCCCC2)CC1)N1C(=O)C(N2C(=O)OCC2c2ccccc2)C1C=Cc1ccccc1 (stereo not shown) [Example 134A]
12 | 44.8 nM | 27.5 nM | O=C(NCc1cccc(C(F)(F)F)c1)[C@@H](CC(=O)N1CCN(N2CCCC2)CC1)N1C(=O)[C@@H](N2C(=O)OC[C@@H]2c2ccccc2)[C@H]1/C=C/c1ccccc1 [Example 134B]
13 | 9.1 nM | 5.58 nM | O=C(CC(C(=O)NCc1cccc(C(F)(F)F)c1)N1C(=O)C(N2C(=O)OCC2c2ccccc2)C1C=Cc1ccccc1)NC1CCN(Cc2ccccc2)CC1 (stereo not shown) [Example 134C]
14 | 6 nM | 3.7 nM | O=C(NCc1cccc(C(F)(F)F)c1)C(CC(=O)N1CCC(CN2CCCCC2)CC1)N1C(=O)C(N2C(=O)OCC2c2ccccc2)C1C=Cc1ccccc1 (stereo not shown) [Example 134G]
15 | 5.29 nM | 3.25 nM | CC(C)(NC(=O)C(CC(=O)N1CCC(N2CCCCC2)CC1)N1C(=O)C(N2C(=O)OCC2c2ccccc2)C1C=Cc1ccccc1)c1ccccc1 (stereo not shown) [Example 134J]
16 | 11 nM | 33 nM | O=C(NCc1cccc(C(F)(F)F)c1)C(CCC(=O)N1CCN(CCc2ccccc2)CC1)N1C(=O)C(N2C(=O)OCC2c2ccccc2)C1C=Cc1ccccc1 (stereo not shown) [Example 136]
17 | 17 nM | 10.5 nM | CCCCN1CCN(C(=O)CCC(C(=O)NCc2cccc(C(F)(F)F)c2)N2C(=O)C(N3C(=O)OCC3c3ccccc3)C2C=Cc2ccccc2)CC1 (stereo not shown) [Example 137]

Row | IC50 | Ki | Compound
18 | 21 nM | 13 nM | CC(C)N1CCN(C(=O)CCC(C(=O)NCc2cccc(C(F)(F)F)c2)N2C(=O)C(N3C(=O)OCC3c3ccccc3)C2C=Cc2ccccc2)CC1 (stereo not shown) [Example 138]
19 | 9.5 nM | 5.84 nM | O=C(NCc1cccc(C(F)(F)F)c1)C(CCC(=O)N1CCN(C2CCCCC2)CC1)N1C(=O)C(N2C(=O)OCC2c2ccccc2)C1C=Cc1ccccc1 (stereo not shown) [Example 139]
20 |  | 0.82 nM | O=C(NCc1cc(F)cc(F)c1)[C@H](CCC(=O)N1CCN(C2CCCCC2)CC1)N1C(=O)[C@@H](N2C(=O)OC[C@@H]2c2ccccc2)[C@H]1/C=C/c1ccccc1 [Example 185]
21 | 2.46 nM | 1.5 nM | COc1cccc(C(C)NC(=O)C(CCC(=O)N2CCN(C3CCCCC3)CC2)N2C(=O)C(N3C(=O)OCC3c3ccccc3)C2C=Cc2ccccc2)c1 (stereo not shown) [Example 203]
22 | ~50 nM |  | CCN1CCC[C@H]1CNC(=O)CC[C@@H](C(=O)N[C@@H]1CCCc2ccccc21)N1C(=O)[C@@H](N2C(=O)OC[C@@H]2c2ccccc2)[C@H]1/C=C/c1ccccc1 [Example 221AI]
23 |  | 2.7 nM | O=C(NC1(c2cccc(F)c2)CCCC1)C(CCC(=O)N1CCN(C2CCCCC2)CC1)N1C(=O)C(N2C(=O)OCC2c2ccccc2)C1C=Cc1ccccc1 (stereo not shown) [Example 221AM]
24 | 83 nM | 51 nM | CC(C)(C)OC(=O)NC1CCN(C2CCN(C(=O)CCC(C(=O)NC3(c4ccccc4)CCCC3)N3C(=O)C(N4C(=O)OCC4c4ccccc4)C3C=Cc3ccccc3)CC2)C1 (stereo not shown) [Example 221AX]
25 | 2.71 nM | 1.66 nM | Cc1cccc(CN(C)C(=O)C(CCC(=O)N2CCN(C3CCCCC3)CC2)N2C(=O)C(N3C(=O)OCC3c3ccccc3)C2C=Cc2ccccc2)c1 (stereo not shown) [Example 221A]
26 | 2.7 nM | 1.66 nM | CCN1CCN(C(=O)CCC(C(=O)NC2CCCc3ccccc32)N2C(=O)C(N3C(=O)OCC3c3ccccc3)C2C=Cc2ccccc2)CC1 (stereo not shown) [Example 221BD]
27 | 56 nM | 35 nM | O=C(NC1CCCc2ccccc21)C(CCC(=O)N1CCN(CCCO)CC1)N1C(=O)C(N2C(=O)OCC2c2ccccc2)C1C=Cc1ccccc1 (stereo not shown) [Example 221BI]
28 | 0.59 nM | 0.36 nM | CN(Cc1cccc(Cl)c1Cl)C(=O)C(CCC(=O)N1CCN(C2CCCCC2)CC1)N1C(=O)C(N2C(=O)OCC2c2ccccc2)C1C=Cc1ccccc1 (stereo not shown) [Example 221B]
29 | 3 nM | 1.84 nM | CN(Cc1cccc(Cl)c1)C(=O)C(CCC(=O)N1CCN(C2CCCCC2)CC1)N1C(=O)C(N2C(=O)OCC2c2ccccc2)C1C=Cc1ccccc1 (stereo not shown) [Example 221C]
30 | 2.41 nM | 1.48 nM | CN(Cc1cccc(Br)c1)C(=O)C(CCC(=O)N1CCN(C2CCCCC2)CC1)N1C(=O)C(N2C(=O)OCC2c2ccccc2)C1C=Cc1ccccc1 (stereo not shown) [Example 221D]
31 | 20.2 nM | 12.4 nM | CN(Cc1cc(Cl)cc(Cl)c1)C(=O)C(CCC(=O)N1CCN(C2CCCCC2)CC1)N1C(=O)C(N2C(=O)OCC2c2ccccc2)C1C=Cc1ccccc1 (stereo not shown) [Example 221E]
32 | 1.7 nM | 1.04 nM | C[C@@H](NC(=O)[C@H](CCC(=O)N1CCN(C2CCCCC2)CC1)N1C(=O)[C@@H](N2C(=O)OC[C@@H]2c2ccccc2)[C@H]1/C=C/c1ccccc1)c1cccc(C(F)(F)F)c1 [Example 221F]
33 | 4 nM | 2.5 nM | O=C(NC1(c2ccccc2F)CCCC1)C(CCC(=O)N1CCN(C2CCCCC2)CC1)N1C(=O)C(N2C(=O)OCC2c2ccccc2)C1C=Cc1ccccc1 (stereo not shown) [Example 221H]

Row | Compound | IC50 | Ki
34 | O=C(NC1(c2ccccc2)CCCCC1)C(CCC(=O)N1CCN(C2CCCCC2)CC1)N1C(=O)C(N2C(=O)OCC2c2ccccc2)C1C=Cc1ccccc1 (stereo not shown) [Example 221G] | 1.5 nM | 0.93 nM
